Measurements taken from patent publication US20090117090A1, “INHIBITION OF GLYCOGEN SYNTHASE KINASE 3 BETA IN ARTERIAL REPAIR AND STENT RE-ENDOTHELIALIZATION” (OTTAWA HEART INSTITUTE RESEARCH CORPORATION, priority 2007, published 2009).
Where two headings read alike, the source gives them in different places.

What was measured:
[1] = test system: EPCs; experiment: EPC cell survival assay; type: cell-based, human; conditions: both healthy controls and patients with CAD, n=6
Method: Day seven EPCs were used for all experiments unless otherwise indicated. For the cell survival assay, six high power fields were enumerated on day 7 for each individual. Subsequently, cells were washed and the media changed every four days after which cells were again enumerated. Data are expressed as a percentage of initial cells present on day 7. For apoptosis studies cells from patients and healthy controls were cultured for 7 days. Cells were then lifted and recoated at a density of 2×10^6 mature EPCs per well. The cells were then allowed to incubate for an additional four days prior to being lifted with EDTA supplementation of the media and gentle agitation. Cells were pelleted and resuspended in HBSS. Prior to analysis by flow cytometry, 10 μL of propidium iodide was added to the cell suspension. EPCs were identified by uptake of acLDL-alexa488 (Invitrogen) and UEA-1 FITC labeling in separate experiments. Uptake of propidium iodide identified apoptotic cells. A total of ten thousand events was analyzed and the data expressed as a percentage of total EPCs being apoptotic. All experiments were conducted on a Beckman Coulter Cytomics FC 500 cytometer.

[2] = test system: α-integrin subunits 1-5; experiment: Quantitative PCR of α-integrin subunits in EPCs; type: cell-based, human
[3] = test system: VEGF; experiment: VEGF secretion by EPCs (ELISA); type: cell-based, human; conditions: 24 hours in VEGF free media
[4] = test system: EPCs; experiment: EPC apoptosis by propidium iodide flow cytometry; type: cell-based, human; conditions: 2×GSKI; EPCs of healthy controls and CAD patients
[5] = test system: β-catenin; experiment: β-catenin nuclear levels by western blot of EPC nuclear extracts; type: cell-based, human; conditions: EPCs cultured in media supplemented with GSKI (2×) vs control media
Method: β-catenin nuclear levels were assayed by western blot of nuclear extracts from both control and treated EPCs. Briefly, nuclei were separated by differential centrifugation and total nuclear protein was extracted. Protein was then run on an acrylamide gel and transferred onto a PVDF membrane overnight. After transfer, the membrane was blocked for one hour in 5% skim milk powder in 0.1% Tween-20 in Tris buffered saline. This was then incubated for 48 hours with primary antibody of a monoclonal anti-phospho-β-catenin (Cell Signaling Technologies) diluted 1:1000 in 5% skim milk powder in TBS-T. After incubation the membrane was then washed 3 times for 5 minutes each with TBS-T. The membrane was then incubated in secondary antibody of goat anti rabbit IgG (H+ L) conjugated with horseradish peroxidase (1:5000 in TBS-T) for 24 hours. The membrane was washed and quantitated using ECL Plus (Amersham Biosciences).

[6] = test system: EPCs; experiment: In vitro prediction of maximal tolerated dose of GSKI in EPC culture; type: cell-based, human; conditions: multiples of IC50 concentration in EGM-2; 1× to 100× tested
Method: In accordance with another aspect of the present invention, local delivery of inhibitor at the site of arterial injury represents an alternative strategy for enhancing arterial repair and mitigating neointima formation. GSKI coated stents (GCSs) were manufactured for use in a rabbit carotid model of stent neointima formation as previously described (27). Prior to implanting these GCSs, in vitro experiments were performed in order to predict the maximal tolerated dose of GSKI we could deliver in vivo. EPCs were cultured in EGM-2 supplemented with 1×, 2×, 5×, 10×, 20×, 30×, 40×, 50×, and 100× concentrations of the GSKI. […] To manufacture the GCSs, bare metal stents were coated with muco-gel supplemented with DMSO (vehicle for GSKI) or muco-gel containing 20×GSKI as previously described (27). Once coated, stents were allowed to dry in a sterile environment and packaged aseptically prior to delivery. Stents were deployed in New Zealand white rabbit carotid arteries according to a previous protocol and the stent neointima was subjected to quantitative histomophometry 14 days post-stent deployment (22). […] Despite rapid re-endothelialization of GCSs, a neointima formed in both groups but was 50% smaller in area in GCSs vs. control stents. […]

[7] = test system: EPCs; experiment: EPC culture and enumeration (AcLDL uptake / UEA-1 dual positive cells); type: cell-based, human
Description: EPCs were isolated and cultured as previously described (17). Briefly, peripheral blood mononuclear cells (PBMCs) were isolated by ficoll gradient centrifugation from either healthy young volunteers or patients with angiographically verified CAD. Blood was collected by venipuncture and anticoagulated with EDTA. 5×10^6 PBMCs were then washed and resuspended in EGM-2 media (Clonetics) and plated on fibronectin coated plates. Media were supplemented with either LiCl (Sigma), GSKI VIII (Calbiochem; Cat. No. 361549; AR-A014418:N-(4-Methoxybenzyl)-N′-(5-nitro-1,3-thiazol-2-yl)urea), or vehicle (DMSO) at the indicated concentrations.
GSK inhibitor VIII is a GSK-3β isoform specific inhibitor derived from a class of compounds shown to inhibit GSK-3 both in vitro (54) and in vivo (53). After 96 hours of culture, non-adherent cells were removed and the plates washed three times with buffered wash solution. Cells were then incubated for another 72 hours before being labeling, enumeration, or being used in various assays.
For the task of enumeration EPCs were arbitrarily defined as cells dually positive for AcLDL uptake and ulex europeus agglutinin I (UEAI) binding. […] Plates of cells were again washed, and incubated for a DAPI nuclear counterstain before a coverslip was applied to the well and double positive cells were counted in 6 random high power fields (×200 magnification). […]

[8] = test system: EPCs; experiment: EPC fibronectin adhesion assay; type: cell-based, human
Method: Day 7 EPCs were detached from their fibronectin coated plates by incubation with 0.5 mmol EDTA. Cells were pelleted, resuspended in EGM-2 and enumerated. Subsequently, 100,000 EPCs were plated in 24-well fibronectin coated plates and incubated for 30 minutes. After, the wells were washed three times with HBSS and the adherent cells labeled and six random high power fields enumerated. Blocking experiments were performed using a specific VLA-4 antibody (MAB169832, Chemicon) at a concentration of 10 ug/mL and allowing cells to incubate for 2 hours.

[9] = target: GSK-3β (Homo sapiens, UniProt P49841); conditions: cited from earlier work
Chain of GSK-3β (P49841 whole entry, species assumed): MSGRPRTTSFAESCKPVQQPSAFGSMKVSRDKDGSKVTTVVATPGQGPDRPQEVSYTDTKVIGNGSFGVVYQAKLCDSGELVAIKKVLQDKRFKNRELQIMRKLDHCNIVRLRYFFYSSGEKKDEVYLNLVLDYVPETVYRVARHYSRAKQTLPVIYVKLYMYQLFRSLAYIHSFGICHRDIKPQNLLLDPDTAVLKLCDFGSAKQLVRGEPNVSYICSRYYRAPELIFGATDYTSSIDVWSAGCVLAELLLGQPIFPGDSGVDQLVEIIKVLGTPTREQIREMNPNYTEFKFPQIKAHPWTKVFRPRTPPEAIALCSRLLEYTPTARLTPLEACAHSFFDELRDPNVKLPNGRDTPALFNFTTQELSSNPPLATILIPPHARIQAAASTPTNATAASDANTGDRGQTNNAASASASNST

COc1ccc(CNC(=O)Nc2ncc([N+](=O)[O-])s2)cc1 [GSKI, N-(4-Methoxybenzyl)-N′-(5-nitro-1,3-thiazol-2-yl)urea]
EPC survival (long term viability) [1]: significantly improves long term viability | mRNA levels of α-1, -2, -3 and -5 integrin subunits ([2]; GSKI 1× and 2× vs control): No difference | mRNA of α-4 integrin subunit ([2]; both concentrations of the GSKI (1×, 2×)): upregulation | VEGF secretion by mature EPCs [3]: increase | percentage of apoptotic cells [4]: reduction | nuclear b-catenin levels [5]: increased levels | dose resulting in increased EPC death and attenuated function [6]: ≥ 30 × | EPC yield [7]: increase | EPC adherence, healthy controls ([8]; EPCs from healthy controls, fibronectin, 30 minutes): dose dependent increase | increase in EPC adherence, patients cells ([8]; EPCs from patients with CAD, fibronectin, 30 minutes): ~4 fold | number of adherent cells after 30 minutes ([8]; VLA4 blocking experiment, without antibody): increased

[Cl-].[Li+] [LiCl, lithium chloride]
doses in which LiCl inhibits GSK-3β [9]: 10 to 20 mM | EPC yield ([7]; 7 days culture, EPCs from both healthy controls and CAD patients, GSKI at 104 nm and 208 nm): increases
